These results are taken from BindingDB's records for doi:10.1016/j.ejmech.2016.05.049 (University of Naples Federico Ii, 2016).

A short description of this assay: Competitive inhibition of post-glutamyl peptide hydrolyzing activity of human 20S proteasome using Cbz-Leu-Leu-Glu-AMC as substrate measured for 10 mins by fluorescence assay.

Residues, ends and D or L forms follow the SMILES beside them. *: point of attachment. Cbz = O=C(OCc1ccccc1)*

Turning to `CC(C)CC(NC(=O)C(CO)NC(=O)OCc1ccccc1)C(=O)NC(Cc1ccc(O)cc1)C(N)=O` (stereo not drawn) (Cbz-Ser-Leu-Tyr-NH2; configuration not given here), the affinity corresponds to a Ki of 8.59 µM. This counts as single-digit micromolar. The same measure for `COC(=O)[C@H](Cc1ccc(O)cc1)NC(=O)[C@H](CC(C)C)NC(=O)[C@H](CO)NC(=O)OCc1ccccc1` (Cbz-Ser-Leu-Tyr-OMe): 31.3 µM.

Broadly, the Ki is a dissociation constant, usually derived from enzyme kinetics or from competition with a known ligand. A lower Ki goes with a stronger hold on the target.
